This note sets out measurements from patent publication US8859550B2, “Heterocyclic inhibitors of histamine receptors for the treatment of disease” (Kalypsys, Inc., priority 2011, dated 2014).

Format in all cases: physicochemical
A short description of data set [1]: Equilibrium solubility study. Particulars: for solubility thermodynamic: thermodynamic from solid, read-out: Filtrate Concentration (equilibrium solubility). As to the method:
Equilibrium solubility experiments were conducted for Compound 2 Monohydrochloride Form 1, Compound 2 Monomesylate Form 1 and Compound 2 Monocitrate Form 1 salts in water and pH-5 acetate buffer solution. The results of the equilibrium solubility study are summarized in Table 26 (where “a” indicates FTIR and PXRD spectra of both samples were distinctly different from the known forms of Compound 2 or Compound 2 Monocitrate salt Form 1).

Data set [2] is described as follows: Solubility in aqueous acetate buffer (80 mM). As to conditions: aqueous acetate buffer (80 mM) at pH3.5-4.5.
Data set [3] in a line: Solid state form conversion on storage at ambient conditions. As to conditions: solid state, ambient conditions. From the text:
Two crystal forms of Compound 1 Mesylate Salt were obtained from these experiments. Compound 1 Mesylate Salt, Form 1 is a monomesylate reversible monohydrate solid state form that was obtained from ten of the twelve crystallization experiments conducted. […] Compound 1 Mesylate Salt Form 2 was obtained by slow evaporation of gummy solids at ambient temperature in two of twelve screening experiments. Compound 1 Mesylate Salt Form 2 was obtained as a mixture of Form 1 and Form 2 in one of twelve crystallization experiments.
A Compound 1 Mesylate salt form screen was conducted involving about 160 crystallization experiments in 48 solvents and aqueous mixtures was performed conducted as previously described (vide supra). Compound 1 Mesylate Salt Form 1, the reversible monohydrate initially discovered in during the crystallization experiments cited above, was obtained from a variety of solvents and crystallization conditions, including 25 slurry-ripening, six cooling, 16 evaporative and four vapor diffusion experiments. […] Samples of Compound 1, Mesylate Salt Forms 2-5 converted to Compound 1 Mesylate Salt Form 1 in solid state within one week at ambient conditions.

The nature of data set [4]: Gravimetric Vapor Sorption (GVS). Particulars: 25° C. As to the method: GVS: GVS experiments were conducted on a SurfaceMeasurement Systems DVS-HT at 25° C. The instrument was operated in step mode and the relative humidity (RH) was increased in 10% RH increments from 40% RH to 90% RH, then decreased from 90% RH to 0% RH, then increased a second time from 0% RH to 90% RH, then decreased from 90% RH to 0% RH. An extra step at 75% RH was included in each cycle. The mass equilibrium criterion was set at 0.005% change in mass over time (dm/dt). A minimum step time of 10 minutes and a maximum step time of 240 minutes were specified.

Like-named read-outs stand apart in the source and are kept apart here.

Broadly, the solubility is the concentration that dissolves in the medium under given conditions. Read a low solubility as little dissolved substance. As to `CN1CCN(c2ncc(-c3cccs3)n3nnnc23)CC1.CS(=O)(=O)O` [Compound 1 Mesylate Salt Form 1, 8-(4-Methylpiperazin-1-yl)-5-(thiophen-2-yl)tetrazolo[1,5-a]pyrazine Mesylate Monohydrate], the solubility thermodynamic is 58.2 mg/mL in data set [1] (0.2 M acetate buffer, pH 5, aqueous buffer, 0.2M Acetate Buffer (pH5), final pH 4.17, residual solid Free Base) and > 100 mg/mL in data set [1] (water, pH 3.51, water, Water, final pH 3.51, Dissolved). Further, in data set [1] (Water, final pH 3.51, Dissolved, Mesylate Monohydrate), the “Filtrate Concentration (equilibrium solubility)” value was >100 mg/mL. In data set [1] (water, aqueous), the solubility was > 100 mg/mL. The “improvement in solubility over Compound 1” value in data set [2] was > 5 fold. Moreover, in data set [3], the crystal form stability result was “the most, and the only, stable crystal form”. In addition, in data set [4], the “hygroscopicity (GVS)” value is listed as “not hydroscopic”. For the same compound, the “GVS loss of water” value in data set [4] (below 20% RH) is ~4.30%. In addition, the GVS water content in data set [4] (between 20-90% RH) is given as ~4.3%.
